Test: Tests for dissolving the composition in liquid media (water, liquid paraffin, propylene glycol)
Type: physicochemical
Conditions: 0.75% by mass of N-lauroyl proline (Composition 3 at 3% by mass)
Experimental: Composition 3 prepared in the above paragraph is dissolved in water, in liquid paraffin and in propylene glycol, at a proportion of 3% by mass, which corresponds to 0.75% by mass of N-lauroyl proline.

With `CCCCCCCCCCCC(=O)N1CCC[C@H]1C(=O)O` [Pure N-lauroyl proline, N-lauroyl proline] the “Temperature at which dispersible in liquid paraffin” value (liquid paraffin) was “dispersible at 70 °C”, the “Temperature at which dispersible in propylene glycol” value (propylene glycol) was “dispersible at 60 °C” and the “Temperature at which dispersible in water” value (water) was “dispersible at 80 °C”.

Reference: patent US8093221B2, “Cosmetic and pharmaceutical compositions comprising lauroyl proline and an ester of anhydrohexitol and of an aliphatic carboxylic acid” (Societe d'Exploitation de Produits pour les Industries …, priority 2005, dated 2012)
